Measurements as given in patent publication US4990499A, “Anti-herpes simplex virus activity of 5-alkoxymethyl-2'-deoxycytidimes and their 5-monophosphates” (priority 1989, dated 1991).

Key:
Assay type in all cases: cell-based
[1] = system: Deoxynucleoside Triphosphate (dNTP) Pools in Uninfected Vero Cells; assay: Deoxynucleoside triphosphate (dNTP) pools in uninfected (mock-infected) Vero cells; details: Table 7, uninfected Vero cells, treatment 7 hours, ± S.E.
How it was run: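 Vero cells were mock-infected for 1 h, then treated with MMdCyd, H4 dUrd, both together, dGUO ± H4 dUrd, or N-methyl-MMdCyd, with untreated cells as control. dNTP pools were measured, and values are means of at least two assays of triplicate cell cultures.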

[2] = Cytotoxicity (MTC), HEP-2 cells; details: human, read-out: minimum cytotoxic concentration (MTC)
Protocol: Minimum cytotoxic concentrations (MTC) for MMdCyd was greater than 1,000 μg/ml for RK-13, HEP-2 and Vero cells.
^c MTC = Minimum toxic concentration concentration required to
produce definite evidence of microscopic toxicity on confluent monolayer

[3] = Inhibition of proliferation (MTC), H-9 cells; details: human, highest concentration tested
Protocol: Inhibitory effects of MMdCyd on the proliferation of murine and human tumor cells was also investigated. MTC for MMdCyd was greater than 400 μg/ml (highest concentration tested) against Raji, MOLT/4F, MT4, CEM and H-9 (human) and L1210 (murine Leukemia) cells.

In the case of `COCc1cn([C@H]2C[C@H](O)[C@@H](CO)O2)c(=O)nc1N` [MMdCyd, 5-methoxymethyl-2'-deoxycytidine], the dATP pool [1] is reported as 8.3 ± 0.32 .rho.moles/10^6 cells, the dCTP pool [1] is reported as 14.2 ± 1.30 .rho.moles/10^6 cells and the dGTP pool [1] is reported as 52 ± 1.84 .rho.moles/10^6 cells. The dTTP pool [1] was 44 ± 1.67 .rho.moles/10^6 cells, the MCC [2] was > 1000 µg/mL and the MCC [3] was > 400 µg/mL.
